Laboratory results as given in ChEMBL document CHEMBL4507275, “Data for DCP probe BI-2545” (2021).

Legend:
[1] = target: G protein-coupled receptor kinase 4 (Homo sapiens) (UniProt P32298); conditions: Compound concentration 1000.0 nM
[2] = target: Bone morphogenetic protein receptor type-1A (Homo sapiens) (UniProt P36894); conditions: Compound concentration 1000.0 nM
[3] = target: Serine/threonine-protein kinase SIK2 (Homo sapiens) (UniProt Q9H0K1); conditions: Compound concentration 1000.0 nM
[4] = target: SRSF protein kinase 1 (Homo sapiens) (UniProt Q96SB4); conditions: Compound concentration 1000.0 nM
[5] = target: Maternal embryonic leucine zipper kinase (Homo sapiens) (UniProt Q14680); conditions: Compound concentration 1000.0 nM
[6] = target: Histamine H3 receptor (Homo sapiens) (UniProt Q9Y5N1); conditions: Compound concentration 10.0 uM
[7] = target: Mitogen-activated protein kinase 14 (Homo sapiens) (UniProt Q16539); conditions: Compound concentration 1000.0 nM
[8] = target: Casein kinase I isoform alpha-like (Homo sapiens) (UniProt Q8N752); conditions: Compound concentration 1000.0 nM
[9] = target: Cyclin-dependent kinase 5 (Homo sapiens) (UniProt Q00535); conditions: Compound concentration 1000.0 nM
[10] = target: Serine/threonine-protein kinase DCLK2 (Homo sapiens) (UniProt Q8N568); conditions: Compound concentration 1000.0 nM
[11] = target: Inhibitor of nuclear factor kappa-B kinase subunit alpha (Homo sapiens) (UniProt O15111); conditions: Compound concentration 1000.0 nM
[12] = target: 1-phosphatidylinositol 3-phosphate 5-kinase (Homo sapiens) (UniProt Q9Y2I7); conditions: Compound concentration 1000.0 nM
[13] = target: BMP-2-inducible protein kinase (Homo sapiens) (UniProt Q9NSY1); conditions: Compound concentration 1000.0 nM
[14] = target: Serine/threonine-protein kinase 38-like (Homo sapiens) (UniProt Q9Y2H1); conditions: Compound concentration 1000.0 nM
[15] = target: MAP kinase-interacting serine/threonine-protein kinase 2 (Homo sapiens) (UniProt Q9HBH9); conditions: Compound concentration 1000.0 nM
[16] = target: Dual specificity protein kinase CLK3 (Homo sapiens) (UniProt P49761); conditions: Compound concentration 1000.0 nM
[17] = target: Serine/threonine-protein kinase 16 (Homo sapiens) (UniProt O75716); conditions: Compound concentration 1000.0 nM
[18] = target: Serine/threonine-protein kinase TAO3 (Homo sapiens) (UniProt Q9H2K8); conditions: Compound concentration 1000.0 nM
[19] = target: Insulin receptor (Homo sapiens) (UniProt P06213); conditions: Compound concentration 1000.0 nM
[20] = target: Mitogen-activated protein kinase kinase kinase kinase 3 (Homo sapiens) (UniProt Q8IVH8); conditions: Compound concentration 1000.0 nM
[21] = target: Cyclin-dependent kinase 8 (Homo sapiens) (UniProt P49336); conditions: Compound concentration 1000.0 nM
[22] = target: Serine/threonine-protein kinase pim-1 (Homo sapiens) (UniProt P11309); conditions: Compound concentration 1000.0 nM
[23] = target: T1, Muscarinic acetylcholine receptor M2 (Homo sapiens) (UniProt P08172); conditions: Compound concentration 10.0 uM
T1 sequence (whole entry): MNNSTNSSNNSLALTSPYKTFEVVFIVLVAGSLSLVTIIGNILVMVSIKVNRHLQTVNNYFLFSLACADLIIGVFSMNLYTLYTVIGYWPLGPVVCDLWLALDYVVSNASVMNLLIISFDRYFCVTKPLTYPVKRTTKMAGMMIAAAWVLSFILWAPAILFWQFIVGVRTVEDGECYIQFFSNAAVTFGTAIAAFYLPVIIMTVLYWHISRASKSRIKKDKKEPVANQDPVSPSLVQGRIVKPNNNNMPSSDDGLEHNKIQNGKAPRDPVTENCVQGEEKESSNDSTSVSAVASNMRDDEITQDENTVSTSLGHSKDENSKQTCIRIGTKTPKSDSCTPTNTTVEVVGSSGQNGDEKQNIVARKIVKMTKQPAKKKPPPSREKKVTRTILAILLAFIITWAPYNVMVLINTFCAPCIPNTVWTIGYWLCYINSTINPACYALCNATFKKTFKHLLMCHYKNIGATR

[24] = target: Inhibitor of nuclear factor kappa-B kinase subunit beta (Homo sapiens) (UniProt O14920); conditions: Compound concentration 1000.0 nM
[25] = tested on: Phosphatidylinositol 4,5-bisphosphate 3-kinase catalytic subunit alpha isoform (Homo sapiens), P42336 [I800L]; conditions: Compound concentration 1000.0 nM
[26] = tested on: Tyrosine-protein kinase ABL1 (Homo sapiens), P00519 [T315I]; conditions: Compound concentration 1000.0 nM
[27] = target: Ephrin type-A receptor 8 (Homo sapiens) (UniProt P29322); conditions: Compound concentration 1000.0 nM
[28] = target: Serine/threonine-protein kinase MRCK alpha (Homo sapiens) (UniProt Q5VT25); conditions: Compound concentration 1000.0 nM
[29] = target: Bone morphogenetic protein receptor type-2 (Homo sapiens) (UniProt Q13873); conditions: Compound concentration 1000.0 nM
[30] = target: Serine/threonine-protein kinase TAO1 (Homo sapiens) (UniProt Q7L7X3); conditions: Compound concentration 1000.0 nM
[31] = target: Serine/threonine-protein kinase MRCK gamma (Homo sapiens) (UniProt Q6DT37); conditions: Compound concentration 1000.0 nM
[32] = target: Mitogen-activated protein kinase kinase kinase kinase 5 (Homo sapiens) (UniProt Q9Y4K4); conditions: Compound concentration 1000.0 nM
[33] = target: Dual serine/threonine and tyrosine protein kinase (Homo sapiens) (UniProt Q6XUX3); conditions: Compound concentration 1000.0 nM
[34] = target: Histamine H1 receptor (Homo sapiens) (UniProt P35367); conditions: Compound concentration 10.0 uM
[35] = tested on: Epidermal growth factor receptor (Homo sapiens), P00533 [L858R,T790M]; conditions: Compound concentration 1000.0 nM
[36] = target: Peripheral plasma membrane protein CASK (Homo sapiens) (UniProt O14936); conditions: Compound concentration 1000.0 nM
[37] = target: Serine/threonine-protein kinase Sgk1 (Homo sapiens) (UniProt O00141); conditions: Compound concentration 1000.0 nM
[38] = target: Receptor-interacting serine/threonine-protein kinase 4 (Homo sapiens) (UniProt P57078); conditions: Compound concentration 1000.0 nM
[39] = target: Cyclin-dependent kinase 13 (Homo sapiens) (UniProt Q14004); conditions: Compound concentration 1000.0 nM

Chain of Cyclin-dependent kinase 5 (Homo sapiens) (Q00535 whole entry, looked up): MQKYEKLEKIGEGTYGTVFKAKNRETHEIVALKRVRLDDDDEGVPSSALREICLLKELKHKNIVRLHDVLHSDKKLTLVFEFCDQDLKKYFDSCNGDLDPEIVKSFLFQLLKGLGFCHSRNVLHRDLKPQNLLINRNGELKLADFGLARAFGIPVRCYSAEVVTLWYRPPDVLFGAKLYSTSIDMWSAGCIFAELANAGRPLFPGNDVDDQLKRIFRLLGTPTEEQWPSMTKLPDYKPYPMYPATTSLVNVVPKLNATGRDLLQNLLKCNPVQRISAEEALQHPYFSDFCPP
Chain of Mitogen-activated protein kinase kinase kinase kinase 5 (Homo sapiens) (Q9Y4K4 whole entry, looked up): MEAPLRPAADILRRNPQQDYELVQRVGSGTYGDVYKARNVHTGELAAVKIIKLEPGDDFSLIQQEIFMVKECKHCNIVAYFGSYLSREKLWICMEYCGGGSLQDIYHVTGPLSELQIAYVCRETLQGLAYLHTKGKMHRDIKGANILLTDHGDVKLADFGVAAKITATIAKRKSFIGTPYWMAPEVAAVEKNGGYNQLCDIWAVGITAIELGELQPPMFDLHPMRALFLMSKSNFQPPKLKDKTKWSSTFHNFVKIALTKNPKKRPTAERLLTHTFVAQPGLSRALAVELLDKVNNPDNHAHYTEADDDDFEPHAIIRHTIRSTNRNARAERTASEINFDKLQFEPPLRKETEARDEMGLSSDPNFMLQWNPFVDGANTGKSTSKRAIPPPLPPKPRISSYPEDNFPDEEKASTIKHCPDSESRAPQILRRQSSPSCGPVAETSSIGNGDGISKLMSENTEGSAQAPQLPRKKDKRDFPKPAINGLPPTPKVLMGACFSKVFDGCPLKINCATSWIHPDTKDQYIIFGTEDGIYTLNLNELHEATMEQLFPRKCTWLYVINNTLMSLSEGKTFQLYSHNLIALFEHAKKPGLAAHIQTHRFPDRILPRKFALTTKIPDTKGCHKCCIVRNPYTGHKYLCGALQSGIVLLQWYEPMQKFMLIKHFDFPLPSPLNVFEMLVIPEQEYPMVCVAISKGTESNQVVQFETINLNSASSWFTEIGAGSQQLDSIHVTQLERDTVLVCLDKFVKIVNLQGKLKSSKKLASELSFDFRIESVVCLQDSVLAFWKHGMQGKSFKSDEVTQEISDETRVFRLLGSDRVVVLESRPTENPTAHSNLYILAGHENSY
Chain of 1-phosphatidylinositol 3-phosphate 5-kinase (Homo sapiens) (Q9Y2I7 whole entry): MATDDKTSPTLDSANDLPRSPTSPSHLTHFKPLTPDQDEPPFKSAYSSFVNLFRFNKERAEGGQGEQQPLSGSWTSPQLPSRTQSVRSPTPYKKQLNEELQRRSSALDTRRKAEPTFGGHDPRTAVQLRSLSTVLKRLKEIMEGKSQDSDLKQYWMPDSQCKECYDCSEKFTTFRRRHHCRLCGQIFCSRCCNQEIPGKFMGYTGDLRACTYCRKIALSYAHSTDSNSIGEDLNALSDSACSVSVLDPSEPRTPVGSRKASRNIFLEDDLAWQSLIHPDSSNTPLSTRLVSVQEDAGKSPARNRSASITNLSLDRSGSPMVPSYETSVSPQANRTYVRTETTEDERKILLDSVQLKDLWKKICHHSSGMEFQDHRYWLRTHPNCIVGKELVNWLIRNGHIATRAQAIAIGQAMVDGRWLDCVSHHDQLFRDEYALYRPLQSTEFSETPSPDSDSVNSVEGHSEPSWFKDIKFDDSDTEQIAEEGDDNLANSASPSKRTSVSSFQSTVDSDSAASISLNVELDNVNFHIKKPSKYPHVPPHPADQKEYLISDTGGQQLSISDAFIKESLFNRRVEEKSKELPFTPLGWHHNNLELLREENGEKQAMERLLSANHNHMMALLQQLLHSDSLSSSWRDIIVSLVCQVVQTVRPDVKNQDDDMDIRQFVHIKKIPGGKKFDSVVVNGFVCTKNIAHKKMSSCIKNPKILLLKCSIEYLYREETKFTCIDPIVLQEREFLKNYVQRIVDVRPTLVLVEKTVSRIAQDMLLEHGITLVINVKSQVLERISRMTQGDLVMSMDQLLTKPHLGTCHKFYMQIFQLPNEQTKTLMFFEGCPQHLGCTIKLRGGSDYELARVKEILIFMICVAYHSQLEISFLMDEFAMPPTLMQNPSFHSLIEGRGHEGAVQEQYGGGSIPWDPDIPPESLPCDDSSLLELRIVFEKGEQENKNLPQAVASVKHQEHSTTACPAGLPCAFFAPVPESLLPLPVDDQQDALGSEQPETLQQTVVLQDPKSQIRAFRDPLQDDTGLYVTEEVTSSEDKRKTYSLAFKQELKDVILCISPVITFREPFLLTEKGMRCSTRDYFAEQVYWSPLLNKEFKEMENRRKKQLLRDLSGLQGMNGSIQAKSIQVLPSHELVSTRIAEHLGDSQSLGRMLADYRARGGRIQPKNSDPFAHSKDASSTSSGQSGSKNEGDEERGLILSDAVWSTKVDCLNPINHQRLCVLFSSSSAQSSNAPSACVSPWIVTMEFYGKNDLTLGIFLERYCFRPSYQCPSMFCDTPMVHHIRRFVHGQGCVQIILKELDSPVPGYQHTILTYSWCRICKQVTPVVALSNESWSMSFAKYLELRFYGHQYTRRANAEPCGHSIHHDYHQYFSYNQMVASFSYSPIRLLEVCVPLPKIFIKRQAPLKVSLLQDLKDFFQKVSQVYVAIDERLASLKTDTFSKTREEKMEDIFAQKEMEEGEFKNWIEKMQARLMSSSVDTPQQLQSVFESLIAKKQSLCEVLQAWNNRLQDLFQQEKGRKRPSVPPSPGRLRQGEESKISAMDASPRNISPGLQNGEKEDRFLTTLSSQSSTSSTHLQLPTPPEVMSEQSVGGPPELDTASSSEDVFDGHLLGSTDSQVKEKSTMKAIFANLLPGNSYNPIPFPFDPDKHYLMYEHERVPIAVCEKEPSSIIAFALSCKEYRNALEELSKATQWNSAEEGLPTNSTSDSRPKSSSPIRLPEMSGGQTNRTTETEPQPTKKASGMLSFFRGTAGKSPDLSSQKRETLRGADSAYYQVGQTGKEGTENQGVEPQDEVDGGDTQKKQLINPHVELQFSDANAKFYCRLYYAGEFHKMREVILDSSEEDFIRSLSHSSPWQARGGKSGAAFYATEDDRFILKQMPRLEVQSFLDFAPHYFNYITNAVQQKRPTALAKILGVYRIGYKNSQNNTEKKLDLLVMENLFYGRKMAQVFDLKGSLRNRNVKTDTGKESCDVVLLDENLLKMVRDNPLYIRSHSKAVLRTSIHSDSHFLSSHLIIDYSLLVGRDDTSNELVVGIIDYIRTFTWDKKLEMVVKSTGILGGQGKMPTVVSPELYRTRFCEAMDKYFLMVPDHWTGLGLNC
Chain of Insulin receptor (Homo sapiens) (P06213 28-758 limits assumed): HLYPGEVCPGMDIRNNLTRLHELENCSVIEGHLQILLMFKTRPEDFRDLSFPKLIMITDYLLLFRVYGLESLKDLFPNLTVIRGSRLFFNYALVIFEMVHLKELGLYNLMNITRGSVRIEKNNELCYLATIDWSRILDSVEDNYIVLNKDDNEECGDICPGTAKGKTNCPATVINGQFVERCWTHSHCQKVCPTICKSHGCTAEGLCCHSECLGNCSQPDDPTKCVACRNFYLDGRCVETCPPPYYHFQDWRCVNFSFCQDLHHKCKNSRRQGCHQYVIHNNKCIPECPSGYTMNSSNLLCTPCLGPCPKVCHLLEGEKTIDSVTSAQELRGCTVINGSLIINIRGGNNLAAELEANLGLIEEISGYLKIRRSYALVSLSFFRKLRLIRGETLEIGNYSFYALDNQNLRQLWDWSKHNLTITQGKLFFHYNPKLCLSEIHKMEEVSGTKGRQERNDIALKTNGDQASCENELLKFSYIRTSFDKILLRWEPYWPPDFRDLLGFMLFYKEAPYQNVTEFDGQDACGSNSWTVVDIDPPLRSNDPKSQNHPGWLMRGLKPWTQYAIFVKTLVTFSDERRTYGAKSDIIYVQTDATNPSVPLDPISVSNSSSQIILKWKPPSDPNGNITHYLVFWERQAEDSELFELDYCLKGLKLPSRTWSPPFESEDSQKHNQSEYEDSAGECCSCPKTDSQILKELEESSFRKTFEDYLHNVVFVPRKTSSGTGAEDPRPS
Chain of Insulin receptor (Homo sapiens) (P06213 763-1382 limits assumed): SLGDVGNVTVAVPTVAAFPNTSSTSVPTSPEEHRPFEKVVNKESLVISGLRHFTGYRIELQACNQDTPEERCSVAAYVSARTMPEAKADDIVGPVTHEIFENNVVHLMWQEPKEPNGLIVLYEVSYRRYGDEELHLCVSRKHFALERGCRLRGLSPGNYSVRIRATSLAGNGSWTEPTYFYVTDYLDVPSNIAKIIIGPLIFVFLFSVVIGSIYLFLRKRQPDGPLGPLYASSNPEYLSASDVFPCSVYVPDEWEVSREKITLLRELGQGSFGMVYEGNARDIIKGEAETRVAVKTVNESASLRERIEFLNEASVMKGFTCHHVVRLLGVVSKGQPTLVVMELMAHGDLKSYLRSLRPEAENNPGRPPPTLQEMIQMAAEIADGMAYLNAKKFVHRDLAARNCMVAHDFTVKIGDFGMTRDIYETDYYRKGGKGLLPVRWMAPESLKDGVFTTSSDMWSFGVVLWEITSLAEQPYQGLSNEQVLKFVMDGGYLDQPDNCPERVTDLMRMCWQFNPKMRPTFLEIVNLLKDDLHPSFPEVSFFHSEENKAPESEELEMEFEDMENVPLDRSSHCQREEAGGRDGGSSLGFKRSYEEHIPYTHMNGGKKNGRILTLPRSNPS
Chain of Casein kinase I isoform alpha-like (Homo sapiens) (Q8N752 whole entry, canonical isoform): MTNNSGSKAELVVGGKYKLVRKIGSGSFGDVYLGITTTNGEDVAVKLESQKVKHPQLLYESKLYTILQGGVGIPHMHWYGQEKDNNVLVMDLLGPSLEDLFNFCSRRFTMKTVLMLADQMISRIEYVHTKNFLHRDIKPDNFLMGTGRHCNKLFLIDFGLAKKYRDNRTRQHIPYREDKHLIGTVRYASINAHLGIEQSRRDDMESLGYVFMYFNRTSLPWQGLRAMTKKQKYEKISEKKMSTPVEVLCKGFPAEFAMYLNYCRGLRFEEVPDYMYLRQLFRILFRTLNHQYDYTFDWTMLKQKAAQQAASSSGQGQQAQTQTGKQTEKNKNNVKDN

SMILES	residual activity [1] [%]	residual activity [2] [%]	residual activity [3] [%]	residual activity [4] [%]	residual activity [5] [%]	inhibition [6] [%]	residual activity [7] [%]	residual activity [8] [%]	residual activity [9] [%]	residual activity [10] [%]	residual activity [11] [%]	residual activity [12] [%]	residual activity [13] [%]	residual activity [14] [%]	residual activity [15] [%]	residual activity [16] [%]	residual activity [17] [%]	residual activity [18] [%]	residual activity [19] [%]	residual activity [20] [%]	also measured
O=C(NC[C@@H]1[C@H]2CN(C(=O)OCc3cc(C(F)(F)F)cc(C(F)(F)F)c3)C[C@@H]12)c1ccc2[nH]nnc2c1 [BI 2545]	100	100	100	81	97	-5.26	100	86	100	100	100	100	85	45	90	78	100	88	83	89	residual activity [21]: 100%; residual activity [22]: 98%; inhibition [23]: 7.11%; residual activity [24]: 88%; residual activity [25]: 83%; residual activity [26]: 93%; residual activity [27]: 100%; residual activity [28]: 100%; residual activity [29]: 90%; residual activity [30]: 78%; residual activity [31]: 90%; residual activity [32]: 97%; residual activity [33]: 82%; inhibition [34]: 12.8%; residual activity [35]: 80%; residual activity [36]: 70%; residual activity [37]: 100%; residual activity [38]: 100%; residual activity [39]: 85%
Cc1nccc(COC(=O)N2C[C@@H]3[C@@H](CNC(=O)c4ccc5[nH]nnc5c4)[C@@H]3C2)n1 [BI 3017]	100	85	92	80	100	9.03	100	100	100	100	100	100	100	70	90	90	80	83	84	66	residual activity [21]: 75%; residual activity [22]: 96%; inhibition [23]: -5.6%; residual activity [24]: 96%; residual activity [25]: 73%; residual activity [26]: 95%; residual activity [27]: 100%; residual activity [28]: 100%; residual activity [29]: 81%; residual activity [30]: 85%; residual activity [31]: 92%; residual activity [32]: 100%; residual activity [33]: 69%; inhibition [34]: 18.1%; residual activity [35]: 100%; residual activity [36]: 72%; residual activity [37]: 100%; residual activity [38]: 98%; residual activity [39]: 82%
